The results in this text go back to PMC6394892, “The identification and use of robust transaminases from a domestic drain metagenome” (Green Chemistry, 2018).

In assay [1] the test system is T1, pQR2189.
T1 construct: N- and C-terminal His6 tags, pET-28a(+) NdeI/XhoI, expressed in E. coli BL21(DE3)
The experiment in a line: HPLC initial rates, Michaelis-Menten fit. The note with it: apparent, PLP 1 mM, KPi pH 8 50 mM, 20% DMSO, 35 °C. Format: biochemical, uncultured bacterium (household drain metagenome). The text has this:
HPLC initial rates, Michaelis-Menten fit on pQR2189

Assay [2] concerns T1, pQR2189. The experiment in a line: continuous UV absorbance at […] nm, Michaelis-Menten fit. It is filed as biochemical, uncultured bacterium (household drain metagenome). The note with it: apparent, PLP 0.1 mM, KPi pH 7.5 50 mM, 1% DMSO, 30 °C.

SMILES strings stand for the structures.

As usually defined, the Km is the concentration of substrate that gives half-maximal velocity. Take `CC(C)(C)OC(=O)N1CCC(=O)C1` [18a, 1-Boc-3-pyrrolidinone]: the Km in assay [1] (isopropylamine 200 mM) turned out to be 18.9 ± 3.1 mM. As to `C[C@H](N)c1ccccc1` [(S)-7, (S)-α-methylbenzylamine], the Michaelis constant (Km) in assay [2] (pyruvate 1 mM) amounted to 14.8 ± 3.2 mM. Take `CC(=O)C(=O)O` [compound 2, pyruvate]: the Km in assay [2] (amine donor (S)-7 5 mM) was 0.29 ± 0.08 mM. Take `CC(C)N` [compound 27, isopropylamine]: the Km in assay [1] (1-Boc-3-pyrrolidinone 10 mM) worked out at 10.6 ± 1.6 mM.
